Assay results as given in BindingDB's records for doi:10.1021/jm0605482 (Amgen, 2006).

Biological target: Aurora kinase B (Homo sapiens) (UniProt Q96GD4)
Experiment: Inhibition of Aurora1 by HTRF kinase assay

Chain of Aurora kinase B (Homo sapiens) (Q96GD4 whole entry, looked up): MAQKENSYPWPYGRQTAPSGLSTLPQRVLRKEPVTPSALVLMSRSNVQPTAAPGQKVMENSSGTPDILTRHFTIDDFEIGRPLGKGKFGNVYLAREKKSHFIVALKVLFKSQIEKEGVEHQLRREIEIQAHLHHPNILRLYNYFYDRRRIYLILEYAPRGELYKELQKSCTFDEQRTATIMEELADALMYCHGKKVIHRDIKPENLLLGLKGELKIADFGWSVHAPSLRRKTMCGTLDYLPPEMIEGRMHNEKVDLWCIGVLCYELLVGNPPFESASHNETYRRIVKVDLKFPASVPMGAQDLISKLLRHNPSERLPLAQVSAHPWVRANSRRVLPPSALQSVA

`CNc1ncc2cc(-c3cc(C(=O)Nc4cc(C(F)(F)F)ccc4OC4CCN(C)CC4)ccc3C)ccc2n1` [4-methyl-3-(2-(methylamino)quinazolin-6-yl)-N-(2-(1-methylpiperidin-4-yloxy)-5-(trifluoromethyl)phenyl)benzamide] was tested, and the IC50 was over 5 µM.
